Legend:
Assay type in all cases: cell-based, human
HeLa cells [1] = test: Annexin V apoptosis assay
Procedure: To further analyze the cytotoxicity mechanisms, annexin V was used to determine whether VNK-572/cisplatin exerts an anti-cancer activity through apoptosis. The Annexin V assay was performed following the established procedure. The steps included treating the cells with the complex for 24, 48, and 72 h in 6-well plates and incubating at 37°C. The cells were then rinsed with PBS, trypsinized, and neutralized using culture media. The cells were then spun in the centrifuge at 2500 RPM for 3 min, and the supernatant was discarded. The cell pellet was then washed first with PBS and then with ×1 binding buffer. The cells were then suspended in approximately 1 mL of binding buffer (1–5 million cells), and approximately 100 ul of this suspension was stained with 5 μL of annexin V-APC dye for 15 min. The cells were then washed with binding buffer and resuspended in 200 μL of binding buffer before being stained with 5 ul of propidium iodide. The cells were then analyzed using a flow cytometer within 4 h.

DU145 cells = test: cell cycle analysis
Procedure: (§1) The cell cycle of cervical HeLa and prostate DU145 cancer cells was studied after treatment with VNK-572 and cisplatin, respectively (Figure 3). VNK-572 and cisplatin both reduced the G2 population after 72 h compared to control (e.g., 16%–11% in Hela (p = 0.06) and from 17% to 2% in the DU145 cell line (p = 0.003) for VNK-572) (Figure 3A). […] The DU145 cells saw a decrease in both phases following 72 h of treatment—from 68% to 40% and from 11% to 5% for the G1 and S phases, respectively (Figure 3A).

HeLa cells [2] = test: cell cycle analysis
Procedure: as §1

Q: For `F[P-](F)(F)(F)(F)F.F[P-](F)(F)(F)(F)F.[Ru+2].c1cnc2c(c1)c1ncc3c(c1c1cccnc12)CCCC3.c1cnc2c(c1)ccc1cccnc12.c1cnc2c(c1)ccc1cccnc12` [VNK-572], which “Q2 (propidium iodide and annexin V APC-stained cells), late-stage apoptosis” value (HeLa cells [1]; 72 h of treatment, control 2%) is on record?
A: Its value is 11%.

Q: What about the “Q4 (annexin V APC), early apoptosis” value (HeLa cells [1]; 72 h of treatment, control 14% (VNK-572), 13% (cisplatin)) of the same compound?
A: Its value is 26%.

Q: What about the “Q1 (necrosis)” value (HeLa cells [1]; after 72 h of treatment) of the same compound?
A: The value was under 6%.

Q: And the S phase population (DU145 cells; DU145, 72 h of treatment, control 11%)?
A: Its S phase population is 5%.

Q: And the G1 phase population (DU145 cells; DU145, 72 h of treatment, control 68%)?
A: The G1 phase population was 40%.

Q: And the sub-G1 population (DU145 cells; DU145, after 72 h, control 1%)?
A: Its sub-G1 population is 51%.

Q: And the G2 population (DU145 cells; DU145, after 72 h, control 17%)?
A: Its G2 population is 2%.

Q: And the “changes in G1 / S phases” value (HeLa cells [2])?
A: The value was “only slight changes”.

Q: And the sub-G1 population (HeLa cells [2]; 72 h of treatment, control 5% (VNK-572), 6% (cisplatin))?
A: Its sub-G1 population is 12%.

Q: What about the G2 population (HeLa cells [2]; after 72 h, control 16%) of the same compound?
A: Its G2 population is 11%.
